Laboratory results reported in article PMC10218449, “Evidence for Angiotensin II as a Naturally Existing Suppressor for the Guanylyl Cyclase A Receptor and Cyclic GMP Generation” (International Journal of Molecular Sciences, 2023).

What was measured:
[1] = Circulating ANP levels in normal rats after infusion; assay type: in vivo, rat (Sprague-Dawley, male)
Description: (F) Urine output represented by urine volume collected at every 30 min interval during continuous infusion. (G) Urinary sodium excretion during the entire 90 min continuous infusion.
Protocols in this study have been approved by the Mayo Clinic Institutional Animal Care and Use Committee (IACUC). Rats (Sprague-Dawley, male, 10–11 weeks old) were anesthetized and maintained with 2% isoflurane. Rats were kept on heating pad at 37 °C for the entire experiment to maintain their body temperature. Polyethylene tubes (PE-50) were placed into a jugular vein for saline and peptides infusion and into a carotid artery for BP monitoring and blood sampling. The bladder was cannulated with a PE-90 tube for passive urine collection. […] After the 45 min equilibrium, BP was recorded, and blood was sampled as baseline reference value. […] Urine samples were collected every 30 min period and BP was measured every 15 min using CardioSOFT Pro software (Sonometrics Corporation). […] The volume of urine was measured, and the sodium concentrations were measured with an electrocyte analyzer (Diamond Diagnostics Inc., Holliston, MA, USA). Both plasma and urine samples were then stored at −80 °C until assayed. cGMP was measured in rat plasma and urine samples by a cGMP ELISA (Enzo Life Sciences, Farmingdale, NY, USA) as previously reported.

[2] = test system: HEK293/GC-A^+/AT1^+ cells (human GC-A and AT1); assay: Intracellular cGMP generation in HEK293/GC-A+/AT1+ cells; assay type: cell-based; conditions: valsartan 1 µM or Go6983 5 µM; ANP 10^−8 M, ANGII 10^−8 M; one-way ANOVA with Dunnett, p < 0.05
Excerpt: We leveraged HEK293 cells as a cellular tool for mechanistic exploration in the current study. HEK293 cells (passage 4–6) were maintained in Dulbecco’s modified Eagle’s medium (DMEM) supplemented with 10% fetal bovine serum, 100 U/mL penicillin, 100 U/mL streptomycin, and designated antibiotics. HEK293/GC-A^+ and HEK293/GC-B^+ cell lines were generated from HEK293 parental cell transfected with plasmids (OriGene, Rockville, MD, USA) containing either human GC-A or GC-B cDNA sequences. Both GC-A and GC-B plasmid carried sequences for a green florescence protein (GFP) tag and resistance to Neomycin (G418). HEK293/GC-A^+/AT1^+ and HEK293/GC-A^+/AT2^+ cell lines were generated from HEK293/GC-A^+ transfected with lentiviral particle with clones of either human AT1 or AT2 receptor (OriGene, Rockville, MD, USA) using a polybrene transfection agent. Initial transfection was completed with multiplicity of infection (MOI) at 20, 10, and 1. The lentiviral vector carried sequence for resistance to puromycin. Positive HEK293/GC-A^+ and HEK293/GC-B^+ cells were cultured in a regular medium with 250 μg/mL G418; Likewise, positive HEK293/GC-A^+/AT1^+ or HEK293/GC-A^+/AT2^+ cells were cultured in a regular medium with 250 μg/mL G418 (to select for GC-A^+ cells) and 1 μg/mL puromycin (to select for AT1^+ or AT2^+ cells). […]

PKC = PKC activity (phosphorylated pan-PKC substrates, western blot); assay type: cell-based, human; conditions: Go6983 at 5 µM, HEK293/GC-A^+/AT1^+ cells
Excerpt: (§1) Figure 5 Involvement of PKC Signaling in the Crosstalk between ANGII and GC-A. (A) Protein expression of different human PKC isoforms in the membrane and cytosol fractions of different HEK293 cell lines (with or without treatment of ANGII). GC-A and NaK-ATPase serve as quality control for the separation of membrane and cytosol fractions. GAPDH serves as an additional control as it is primarily expressed in the cytosol fraction compared to membrane fraction. (B) Protein expression of phosphorylated PKC substrates, phosphorylated p38 MAPK, and p38 MAPK in HEK293/GC-A^+/AT1^+ cells treated with different PKC modulators. GAPDH serves as a loading control and 50 µg of total protein (determined using BCA method) was loaded in each lane. PMA, phorbol 12-myristate 13-acetate. […] (D) Hypothetical mechanism underlying the crosstalk between ANGII and GC-A derived from our in vitro studies: (1) ANGII naturally suppresses GC-A mediated cGMP production via AT1 receptor, but not the AT2 receptor nor direct effect on GC-A; (2) PKC is a critical downstream target of AT1 mediating this RAAS/NPS interaction.
(§2) HEK293 parental cells, HEK293/GC-A^+, HEK293/GC-B^+, HEK293/GC-A^+/AT1^+, and HEK293/GC-A^+/AT2^+ cells were cultured in 60 mm dish to reach 90–100% confluency before being harvested in RIPA buffer (Thermo Fisher Scientific, Waltham, MA, USA) with protease inhibitors. […]

p38 MAPK = assay: MAPK phosphorylation (p38 MAPK, western blot); assay type: cell-based, human; conditions: Go6983 at 5 µM, HEK293/GC-A^+/AT1^+ cells
Excerpt: as §1, §2

CC[C@H](C)[C@H](NC(=O)[C@H](Cc1ccc(O)cc1)NC(=O)[C@@H](NC(=O)[C@H](CCCNC(=N)N)NC(=O)[C@@H](N)CC(=O)O)C(C)C)C(=O)N[C@@H](Cc1cnc[nH]1)C(=O)N1CCC[C@H]1C(=O)N[C@@H](Cc1ccccc1)C(=O)O [ANGII, angiotensin II]
circulating ANP levels, effect of ANGII co-infusion (in words) ([1]; ANGII 50 pmol/kg/min with ANP 300 pmol/kg/min vs ANP alone, 90 min, N = 4 per group): no influence on circulating ANP levels

CC[C@H](C)[C@@H]1NC(=O)[C@H](CCCNC(=N)N)NC(=O)[C@H](CC(=O)O)NC(=O)[C@H](CCSC)NC(=O)[C@H](CCCNC(=N)N)NC(=O)CNC(=O)CNC(=O)[C@H](Cc2ccccc2)NC(=O)[C@@H](NC(=O)[C@H](CO)NC(=O)[C@H](CO)NC(=O)[C@H](CCCNC(=N)N)NC(=O)[C@H](CCCNC(=N)N)NC(=O)[C@H](CC(C)C)NC(=O)[C@@H](N)CO)CSSC[C@@H](C(=O)N[C@@H](CC(N)=O)C(=O)N[C@@H](CO)C(=O)N[C@@H](Cc2ccccc2)C(=O)N[C@@H](CCCNC(=N)N)C(=O)N[C@@H](Cc2ccc(O)cc2)C(=O)O)NC(=O)CNC(=O)[C@H](CC(C)C)NC(=O)CNC(=O)[C@H](CO)NC(=O)[C@H](CCC(N)=O)NC(=O)[C@H](C)NC(=O)CNC1=O [ANP, atrial natriuretic peptide]
circulating ANP level ([1]; ANP alone, 300 pmol/kg/min continuous i.v. infusion, plasma at 90 min, mean ± SEM, N = 4, endogenous level 15.3 ± 1.4 pg/mL): 18125.1 ± 1729.3 pg/mL

CCCCC(=O)N(Cc1ccc(-c2ccccc2-c2nnn[nH]2)cc1)[C@H](C(=O)O)C(C)C [valsartan]
rescue of ANGII suppression of ANP-induced cGMP (in words) [2]: significantly rescued the suppression effect of ANGII on ANP-induced cGMP

Go6983
rescue of ANGII suppression of ANP-induced cGMP (in words) [2]: significantly rescued the suppression effect of ANGII on ANP-induced cGMP
PKC activity inhibition (in words) (PKC): effectively inhibited PKC activity
MAPK dependence of PKC inhibition (in words) (p38 MAPK): mitogen-activated protein kinase (MAPK) independent manner
